In publication PMC6627067, “Probing Multi-Target Action of Phlorotannins as New Monoamine Oxidase Inhibitors and Dopaminergic Receptor Modulators with the Potential for Treatment of Neuronal Disorders” (Marine Drugs, 2019):
“And” between values parts separate entries of the source, which are not always exact repeats. Identical values can stand only once. Like-named read-outs stand apart in the source and are kept apart here.

What was measured:
hD1 (DRD1) [1] = target: T1, hD1 (DRD1) (Homo sapiens, UniProt P21728); test: cell-based; conditions: read-out: % Inhibition of control agonist response, hD1
hD4 (DRD4) = target: T2, hD4 (DRD4) (Homo sapiens, UniProt P21917); conditions: for % Stimulation of control agonist response, hD4: agonist effect at 100 µM; for inhibition at 100 µM: read-out: % Inhibition of control agonist response, hD4
T2 sequence (P21917 1-419): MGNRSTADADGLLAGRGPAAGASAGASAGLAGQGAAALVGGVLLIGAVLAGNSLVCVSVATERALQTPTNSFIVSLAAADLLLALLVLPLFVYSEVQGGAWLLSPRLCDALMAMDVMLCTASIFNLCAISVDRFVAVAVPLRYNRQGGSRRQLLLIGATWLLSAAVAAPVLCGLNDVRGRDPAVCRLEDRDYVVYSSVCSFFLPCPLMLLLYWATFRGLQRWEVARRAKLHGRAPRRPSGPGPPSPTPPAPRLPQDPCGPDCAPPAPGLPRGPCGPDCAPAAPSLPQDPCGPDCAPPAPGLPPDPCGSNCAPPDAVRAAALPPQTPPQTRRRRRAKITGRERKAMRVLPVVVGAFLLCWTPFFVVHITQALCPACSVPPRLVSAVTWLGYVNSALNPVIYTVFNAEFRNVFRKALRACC

h5-HT1A (HTR1A) = target: T3, h5-HT1A (HTR1A) (Homo sapiens, UniProt P08908); test: GPCR cell-based functional assay, intracellular Ca2+ level, 5-HT1A; conditions: for % Stimulation of control agonist response, h5-HT1A: agonist effect at 100 µM; for inhibition at 100 µM: antagonist effect at 100 µM, read-out: % Inhibition of control agonist response, h5-HT1A
T3 sequence (P08908 1-422): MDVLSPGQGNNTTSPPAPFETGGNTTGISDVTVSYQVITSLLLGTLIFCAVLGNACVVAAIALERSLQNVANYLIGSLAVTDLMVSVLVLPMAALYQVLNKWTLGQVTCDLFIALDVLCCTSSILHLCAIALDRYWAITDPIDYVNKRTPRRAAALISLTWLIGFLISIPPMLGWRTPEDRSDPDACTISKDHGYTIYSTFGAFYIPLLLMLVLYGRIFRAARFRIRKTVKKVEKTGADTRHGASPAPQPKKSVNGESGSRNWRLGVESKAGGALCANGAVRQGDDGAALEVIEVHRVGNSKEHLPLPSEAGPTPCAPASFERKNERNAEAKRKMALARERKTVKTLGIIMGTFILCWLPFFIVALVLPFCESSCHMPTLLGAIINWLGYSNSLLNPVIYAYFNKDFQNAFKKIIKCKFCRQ

hD3 (DRD3) [2] = target: T4, hD3 (DRD3) (Homo sapiens, UniProt P35462); test: cell-based; conditions: for inhibition at 100 µM: read-out: % Inhibition of control agonist response, hD3
hMAO-B [3] = target: T5, hMAO-B (Homo sapiens, UniProt P27338); test: hMAO-B inhibition, chemiluminescent MAO-Glo assay and kinetic analysis; type: biochemical
T5 sequence (P27338 1-520): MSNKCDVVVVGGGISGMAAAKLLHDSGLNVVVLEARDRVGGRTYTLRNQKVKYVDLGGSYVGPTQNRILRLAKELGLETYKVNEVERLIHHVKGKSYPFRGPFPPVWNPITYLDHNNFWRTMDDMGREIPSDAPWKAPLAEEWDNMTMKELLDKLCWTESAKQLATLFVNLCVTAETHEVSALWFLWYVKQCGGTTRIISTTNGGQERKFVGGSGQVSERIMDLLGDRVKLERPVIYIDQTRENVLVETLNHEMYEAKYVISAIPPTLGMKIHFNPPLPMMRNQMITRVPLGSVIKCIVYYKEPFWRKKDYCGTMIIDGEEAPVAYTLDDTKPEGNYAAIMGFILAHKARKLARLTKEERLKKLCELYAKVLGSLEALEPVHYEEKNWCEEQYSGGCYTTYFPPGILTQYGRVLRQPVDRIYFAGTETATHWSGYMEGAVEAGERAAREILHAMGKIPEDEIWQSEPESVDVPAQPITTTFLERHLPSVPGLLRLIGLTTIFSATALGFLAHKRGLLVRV

hNK1 (TACR1) = hNK1 (TACR1) (Homo sapiens, UniProt P25103); test: GPCR cell-based functional assay, intracellular Ca2+ level, NK1; conditions: for % Stimulation of control agonist response, hNK1: agonist effect at 100 µM; for inhibition at 100 µM: antagonist effect at 100 µM, read-out: % Inhibition of control agonist response, hNK1
hM5 (CHRM5) = target: T6, hM5 (CHRM5) (Homo sapiens, UniProt P08912); test: GPCR cell-based functional assay, intracellular Ca2+ level, M5; conditions: for % Stimulation of control agonist response, hM5: agonist effect at 100 µM; for inhibition at 100 µM: antagonist effect at 100 µM, read-out: % Inhibition of control agonist response, hM5
T6 sequence (P08912 1-532): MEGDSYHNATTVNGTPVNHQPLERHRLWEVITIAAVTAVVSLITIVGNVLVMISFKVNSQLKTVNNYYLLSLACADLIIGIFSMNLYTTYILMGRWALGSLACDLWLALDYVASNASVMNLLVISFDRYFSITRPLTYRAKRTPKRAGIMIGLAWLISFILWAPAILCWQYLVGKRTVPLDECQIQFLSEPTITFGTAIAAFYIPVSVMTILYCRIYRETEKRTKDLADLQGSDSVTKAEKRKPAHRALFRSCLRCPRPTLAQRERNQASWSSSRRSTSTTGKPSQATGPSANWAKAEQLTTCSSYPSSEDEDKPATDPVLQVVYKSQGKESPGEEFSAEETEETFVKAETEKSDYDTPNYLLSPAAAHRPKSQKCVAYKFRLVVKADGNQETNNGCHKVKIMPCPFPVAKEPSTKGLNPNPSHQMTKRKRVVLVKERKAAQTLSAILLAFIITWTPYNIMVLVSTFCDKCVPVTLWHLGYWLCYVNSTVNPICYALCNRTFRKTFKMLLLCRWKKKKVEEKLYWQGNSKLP

hD1 (DRD1) [4] = target: T1, hD1 (DRD1); conditions: agonist effect at 100 µM
hV1A (AVPR1A) = hV1A (AVPR1A) (Homo sapiens, UniProt P37288); test: GPCR cell-based functional assay, intracellular Ca2+ level, V1A; conditions: for % Stimulation of control agonist response, hV1A: agonist effect at 100 µM; for inhibition at 100 µM: antagonist effect at 100 µM, read-out: % Inhibition of control agonist response, hV1A
hMAO-A [5] = target: T7, hMAO-A (Homo sapiens, UniProt P21397); test: hMAO-A inhibition, chemiluminescent MAO-Glo assay and kinetic analysis; type: biochemical; conditions: for IC50: read-out: IC50 hMAO-A
T7 sequence (P21397 1-527): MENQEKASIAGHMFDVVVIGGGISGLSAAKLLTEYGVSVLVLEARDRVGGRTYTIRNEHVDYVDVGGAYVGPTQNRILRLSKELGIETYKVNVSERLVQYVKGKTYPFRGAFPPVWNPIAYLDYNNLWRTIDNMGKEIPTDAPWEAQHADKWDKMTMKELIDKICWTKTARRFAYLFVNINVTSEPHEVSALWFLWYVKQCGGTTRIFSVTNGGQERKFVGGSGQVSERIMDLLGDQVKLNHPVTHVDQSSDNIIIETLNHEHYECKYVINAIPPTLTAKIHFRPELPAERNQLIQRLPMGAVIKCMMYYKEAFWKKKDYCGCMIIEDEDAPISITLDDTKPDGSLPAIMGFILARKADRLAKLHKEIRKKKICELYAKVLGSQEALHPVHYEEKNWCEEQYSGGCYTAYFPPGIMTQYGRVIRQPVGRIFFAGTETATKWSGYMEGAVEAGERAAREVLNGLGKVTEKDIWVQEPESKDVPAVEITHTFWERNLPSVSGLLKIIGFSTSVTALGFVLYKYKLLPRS

hD3 (DRD3) [6] = target: T4, hD3 (DRD3); conditions: for % Stimulation of control agonist response, hD3: agonist effect at 100 µM
[7] = design: method as in PMID 25996411; conditions: cited from earlier work
hMAO-A [8] = target: T7, hMAO-A; design: method as in PMID 28251489; conditions: cited from earlier work
hMAO-B [9] = target: T5, hMAO-B; design: method as in PMID 28251489; conditions: cited from earlier work
[10] = concentration-dependent stimulation, mean ± SD
[11] = recombinant hMAO-B, mean ± SD, n = 3
[12] = recombinant hMAO-A, mean ± SD, n = 3
[13] = Kiu from secondary plot of 1/Vmaxapp versus concentration
[14] = Lineweaver-Burk plots, NC = noncompetitive
[15] = ratio of hMAO-A IC50/hMAO-B IC50

T1 sequence (P21728 whole entry): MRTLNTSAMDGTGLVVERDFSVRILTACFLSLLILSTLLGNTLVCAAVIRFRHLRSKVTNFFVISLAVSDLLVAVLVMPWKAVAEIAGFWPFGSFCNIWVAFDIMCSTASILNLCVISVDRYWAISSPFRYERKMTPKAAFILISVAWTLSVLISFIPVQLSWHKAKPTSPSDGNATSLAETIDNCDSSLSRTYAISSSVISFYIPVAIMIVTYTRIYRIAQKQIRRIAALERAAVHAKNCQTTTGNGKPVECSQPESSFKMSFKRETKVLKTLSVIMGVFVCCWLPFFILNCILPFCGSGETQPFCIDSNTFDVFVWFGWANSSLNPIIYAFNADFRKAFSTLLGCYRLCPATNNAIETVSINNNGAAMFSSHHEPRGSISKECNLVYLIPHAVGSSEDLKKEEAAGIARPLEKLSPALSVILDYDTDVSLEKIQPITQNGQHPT
T4 sequence (P35462 whole entry): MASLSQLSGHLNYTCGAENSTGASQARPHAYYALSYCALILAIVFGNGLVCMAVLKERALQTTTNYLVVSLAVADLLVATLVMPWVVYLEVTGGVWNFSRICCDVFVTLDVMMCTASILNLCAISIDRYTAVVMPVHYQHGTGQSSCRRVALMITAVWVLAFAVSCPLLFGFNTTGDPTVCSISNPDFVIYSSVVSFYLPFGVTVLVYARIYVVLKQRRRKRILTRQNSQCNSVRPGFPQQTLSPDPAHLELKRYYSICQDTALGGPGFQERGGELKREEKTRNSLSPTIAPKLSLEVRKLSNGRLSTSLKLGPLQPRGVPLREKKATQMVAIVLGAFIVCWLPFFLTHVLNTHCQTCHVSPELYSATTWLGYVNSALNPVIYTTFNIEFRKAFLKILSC
Chain of hNK1 (TACR1) (P25103 whole entry): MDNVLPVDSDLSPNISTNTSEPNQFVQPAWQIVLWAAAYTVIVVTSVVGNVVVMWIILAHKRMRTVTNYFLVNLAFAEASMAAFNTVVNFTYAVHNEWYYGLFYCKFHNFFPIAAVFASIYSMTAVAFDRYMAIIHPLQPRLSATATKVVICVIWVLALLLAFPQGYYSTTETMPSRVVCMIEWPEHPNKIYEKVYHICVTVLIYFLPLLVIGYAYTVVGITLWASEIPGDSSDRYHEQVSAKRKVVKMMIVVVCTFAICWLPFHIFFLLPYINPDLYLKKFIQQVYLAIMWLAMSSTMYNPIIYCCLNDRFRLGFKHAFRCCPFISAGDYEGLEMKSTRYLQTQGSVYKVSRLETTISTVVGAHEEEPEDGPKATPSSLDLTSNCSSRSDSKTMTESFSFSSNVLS
Chain of hV1A (AVPR1A) (P37288 whole entry): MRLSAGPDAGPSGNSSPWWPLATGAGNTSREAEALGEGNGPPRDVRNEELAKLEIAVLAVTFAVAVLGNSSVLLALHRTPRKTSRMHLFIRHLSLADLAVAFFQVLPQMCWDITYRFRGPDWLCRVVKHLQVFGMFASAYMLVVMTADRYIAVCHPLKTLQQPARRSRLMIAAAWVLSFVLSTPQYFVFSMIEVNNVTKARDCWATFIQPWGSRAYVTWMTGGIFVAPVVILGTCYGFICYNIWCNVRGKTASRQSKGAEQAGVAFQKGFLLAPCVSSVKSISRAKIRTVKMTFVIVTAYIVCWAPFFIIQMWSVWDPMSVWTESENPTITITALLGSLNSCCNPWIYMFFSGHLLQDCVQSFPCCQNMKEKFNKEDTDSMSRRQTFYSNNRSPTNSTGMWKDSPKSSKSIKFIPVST

| Structure (SMILES) | inhibition at 100 µM (hD1 (DRD1) [1]) | % Stimulation of control agonist response, hD4 (hD4 (DRD4)) | inhibition at 100 µM (hD4 (DRD4)) | % Stimulation of control agonist response, h5-HT1A (h5-HT1A (HTR1A)) | inhibition at 100 µM (h5-HT1A (HTR1A)) | inhibition at 100 µM (hD3 (DRD3) [2]) | IC50 (hMAO-B [3]; [11]) | % Stimulation of control agonist response, hNK1 (hNK1 (TACR1)) | inhibition at 100 µM (hNK1 (TACR1)) | % Stimulation of control agonist response, hM5 (hM5 (CHRM5)) | inhibition at 100 µM (hM5 (CHRM5)) | % Stimulation of control agonist response, hD1 (hD1 (DRD1) [4]) | % Stimulation of control agonist response, hV1A (hV1A (AVPR1A)) | inhibition at 100 µM (hV1A (AVPR1A)) | IC50 (hMAO-A [5]; [12]) | % Stimulation of control agonist response, hD3 (hD3 (DRD3) [6]) | EC50 (hD4 (DRD4)) | EC50 (hD3 (DRD3) [2]) | other results |
| --- | --- | --- | --- | --- | --- | --- | --- | --- | --- | --- | --- | --- | --- | --- | --- | --- | --- | --- | --- |
| Oc1cc(O)cc(O)c1 [Phloroglucinol, phloroglucinol] | 4.95% | −9.95 ± 14.50 ^C % | -7.05% | 0.10 ± 0.28 ^B % | -4.15% | -6.75% | > 900 µM | −0.85 ± 0.21 ^C % | -8.05% | −6.05 ± 0.78 ^B % | -21.6% | 0.20 ± 3.82 ^A % | −0.80 ± 0.57 ^C % | 13.9% | > 900 µM | −0.15 ± 14.07 ^C % | – | – | EC50, dopamine D4 agonist effect (hD4 (DRD4); [10]): No activity; IC50 hMAO-B (hMAO-B [3]; [11]): no inhibitory activity; IC50 hMAO-A (hMAO-A [5]; [12]): no inhibitory activity; EC50, dopamine D3 agonist effect (hD3 (DRD3) [6]; [10]): No activity |
| Oc1cc(O)cc(Oc2c(O)cc(O)c3c2Oc2c(O)cc4oc5c(Oc6cc(O)cc(O)c6)c(O)cc(O)c5c4c2O3)c1 [PFF-A, phlorofucofuroeckol-A] | 81.4% | 98.50 ± 12.50% and 98.50 ± 12.50 ^A % | -26.1% | 1.65 ± 0.49 ^A % | 62.5% | -15.2% | 4.89 ± 0.32 µM | 67.65 ± 9.26 ^A % | 88.2% | 29.20 ± 10.75 ^A % | 56% | 0.25 ± 3.18 ^A % | 38.45 ± 7.14 ^B % | 52.9% | 9.22 ± 0.19 µM | 98.57 ± 2.14% and 98.57 ± 2.14 ^A % | 23.5 ± 1.55 µM | 19.2 ± 0.48 µM | Ki (hMAO-B [3]; [13]): 2.69 µM; Inhibition type hMAO-B (hMAO-B [3]; [14]): noncompetitive; Ki (hMAO-A [5]; [13]): 5.18 µM; Inhibition type hMAO-A (hMAO-A [5]; [14]): noncompetitive; SI (selective index) (hMAO-A [5]; [15]): 1.89 |
| Oc1cc(O)cc(Oc2c(O)cc(O)c3c2Oc2c(O)cc(Oc4c(O)cc(Oc5c(O)cc(O)c6c5Oc5c(O)cc(O)cc5O6)cc4O)cc2O3)c1 [Dieckol, dieckol] | 60.6% | 74.43 ± 6.37 ^B % | -5.35% | 1.75 ± 0.64 ^A % | 76.8% | -2.5% | – | 54.70 ± 1.41 ^B % | 77.7% | 7.60 ± 17.11 ^AB % | 19.6% | 1.05 ± 0.21 ^A % | 64.20 ± 0.14 ^A % | 46.2% | – | 81.10 ± 0.66 ^B % | 34 ± 8.62 µM | 44.2 ± 3.25 µM | BBB penetration [7]: effectively penetrate the BBB; Ki (hMAO-A [8]): 20.3 µM; SI (selective index) (hMAO-A [8]; [15]): 0.26; IC50 (hMAO-A [8]; recombinant hMAO-A, obtained from the literature): 11.4 ± 1.06 µM; % Stimulation of control agonist response, hD4 (hD4 (DRD4); listed as dieckol): 74.43 ± 6.37%; Ki (hMAO-B [9]): 18.5 µM; IC50 (hMAO-B [9]; recombinant hMAO-B, obtained from the literature): 43.4 ± 0.73 µM; % Stimulation of control agonist response, hNK1 (hNK1 (TACR1); listed as dieckol): 54.70%; % Stimulation of control agonist response, hV1A (hV1A (AVPR1A); listed as dieckol): 64.20 ± 0.14% and 64.2%; % Stimulation of control agonist response, hD3 (hD3 (DRD3) [6]; listed as dieckol): 81.10 ± 0.66% |
